{
  "source": "paper PMC8073686",
  "about": "“Characterization of Subtype Selective Cannabinoid CB2 Receptor Agonists as Potential Anti-Inflammatory Agents” (Pharmaceuticals, 2021)",
  "type_in_all_cases": "cell-based, human",
  "key": {"[1]": {"tested_on": "IL-2 mRNA in Jurkat cells", "assay": "PHA/PMA-induced IL-2 mRNA in Jurkat cells (RT-PCR)", "experimental": "(§1) Activation of CB2 is known to have anti-inflammatory effects. There are some studies reporting that CB2 agonists decrease cytokine production in immune cells. We also reported that the cannabinoid receptor agonist CP55,940 and ABK5 inhibit cytokine production in the human T cell lines Jurkat and MOLT-4 [24]. Since ABK5-1 and 5-2 were confirmed to be CB2-subtype selective agonists, we were interested to determine whether these compounds also have anti-inflammatory effects. Note, although ABK5-6 had marginally better binding affinity to CB2, it bound to CB1 […] (i.e., micromolar range). Therefore ABK5-6 was not selected for further evaluations. We first tested the change of IL-2 and TNF-α mRNA levels in Jurkat cells. […] To test if these mRNA changes are reflected in the protein levels of cytokines, the IL-2 and TNF-α concentration in the cell culture medium were measured by ELISA. […] Unlike ABK5-1, at 3 h of treatment, the lowest concentration of ABK5-2 used caused the IL-2 mRNA decrease. […] On the other hand, TNF-α mRNA decreased by 45% at 10 μM ABK5-2 after 3 h of treatment (Figure 4E, black columns). […] These mRNA level changes were similar to that of ABK5-1, except ABK5-2 caused a stronger inhibitory effect on expression of TNF-α mRNA. […] Consistent with the mRNA levels, the inhibitory effect of ABK5-2 on TNF-α production was stronger than that of ABK5-1.\n(§2) Figure 4 Effect of ABK5-1 and ABK5-2 on phytohemagglutinin (PHA)/phorbol 12-myristate 13-acetate (PMA)-induced cytokine production in T cells. Jurkat cells were pretreated with DMSO (<0.1%; indicated as 0 μM) or various concentrations of ABK5-1 (A–D) or ABK5-2 (E–H) and stimulated with PHA and PMA. IL-2 and TNF-α mRNA levels were determined by real-time PCR (RT-PCR) after ABK5-1 treatment and (A) 3 h and (B) 24 h of PHA/PMA (phytohemagglutinin/phorbol 12-myristate 13-acetate) stimulation. Protein levels of (C) IL-2 and (D) TNF-α were also examined after 24 h of stimulation. IL-2 and TNF-α mRNA were also examined after ABK5-2 treatment and (E) 3 h and (F) 24 h of stimulation, and protein levels of (G) IL-2 and (H) TNF-α were measured after 24 h stimulation. Results are indicated as the mean ± S.D. of three independent assays performed in triplicate for each concentration. One-way ANOVA and Dunnett’s post-hoc test were used and * p < 0.05, ** p < 0.01, *** p < 0.005, **** p < 0.0001 (versus reference).\nFor cytokine analysis, 0.75 × 10^6 Jurkat cells per well were seeded in 12-well cell culture plates and treated with compounds at a concentration between 0.1 to 10 μM and incubated for 30 min at 37 °C. Then cells were stimulated for cytokine production with PHA (1 μg/mL) and PMA (12.5 ng/mL), for 3 and 24 h. After stimulation, cells were harvested for RNA analysis and the culture supernatant was used for measurement of IL-2 and TNF-α concentrations by human IL-2 and TNF-α ELISA kits (Thermo Fisher Scientific; Waltham, MA, USA) according to the manufacturer instructions.\nJurkat cells were lysed and total RNA was extracted using TRIzol Reagent (Life Technologies, Carlsbad, CA, USA) followed by reverse transcription by a High-Capacity cDNA Reverse Transcription kit (Life Technologies, Carlsbad, CA, USA) according to the manufacturer’s instructions. Quantitative real-time PCR was performed using an Applied Biosystems 7500 Fast Real-Time PCR system in a 10 μL reaction volume containing 2 μL diluted cDNA and 0.5 μM each of forward and reverse primers, and PowerUp SYBR Green Master Mix (Life Technologies, Carlsbad, CA, USA). Primers used in the reaction were as follows: human 36B4 forward, 5′-[…]-3′, and human 36B4 reverse, 5′-[…]-3′, and human IL-2 forward, 5′-[…]-3′, and human IL-2 reverse, 5′-[…]-3′, and human TNF-α forward, 5′-[…]′, human TNF-α reverse, 5′-[…]-3′. The PCR cycles are as follows: 50 °C for 2 min, 95 °C for 2 min, 40 cycles of 95 °C for 3 sec and 60 °C for 30 s. […]"}, "[2]": {"tested_on": "TNF-α mRNA in Jurkat cells", "assay": "PHA/PMA-induced TNF-α mRNA in Jurkat cells (RT-PCR)", "conditions": "10 μM", "experimental": "as §1\nas §2, with “Results are indicated as the mean ± S.D. of three independent assays performed in triplicate for each concentration. One-way ANOVA and Dunnett’s post-hoc test were used and * p < 0.05, ** p < 0.01, *** p < 0.005, **** p < 0.0001 (versus reference).” left out\nJurkat cells were lysed and total RNA was extracted using TRIzol Reagent (Life Technologies, Carlsbad, CA, USA) followed by reverse transcription by a High-Capacity cDNA Reverse Transcription kit (Life Technologies, Carlsbad, CA, USA) according to the manufacturer’s instructions. Quantitative real-time PCR was performed using an Applied Biosystems 7500 Fast Real-Time PCR system in a 10 μL reaction volume containing 2 μL diluted cDNA and 0.5 μM each of forward and reverse primers, and PowerUp SYBR Green Master Mix (Life Technologies, Carlsbad, CA, USA). […]"}, "[3]": {"tested_on": "IL-2 production in Jurkat cells", "assay": "PHA/PMA-induced IL-2 production in Jurkat cells (ELISA of culture medium)", "conditions": "10 μM, 24 h", "experimental": "(§3) Activation of CB2 is known to have anti-inflammatory effects. There are some studies reporting that CB2 agonists decrease cytokine production in immune cells. We also reported that the cannabinoid receptor agonist CP55,940 and ABK5 inhibit cytokine production in the human T cell lines Jurkat and MOLT-4 [24]. Since ABK5-1 and 5-2 were confirmed to be CB2-subtype selective agonists, we were interested to determine whether these compounds also have anti-inflammatory effects. Note, although ABK5-6 had marginally better binding affinity to CB2, it bound to CB1 very, very weakly (i.e., micromolar range). Therefore ABK5-6 was not selected for further evaluations. […] To test if these mRNA changes are reflected in the protein levels of cytokines, the IL-2 and TNF-α concentration in the cell culture medium were measured by ELISA. […]\n(§4) Figure 4 Effect of ABK5-1 and ABK5-2 on phytohemagglutinin (PHA)/phorbol 12-myristate 13-acetate (PMA)-induced cytokine production in T cells. […] IL-2 and TNF-α mRNA levels were determined by real-time PCR (RT-PCR) after ABK5-1 treatment and (A) 3 h and (B) 24 h of PHA/PMA (phytohemagglutinin/phorbol 12-myristate 13-acetate) stimulation. […] IL-2 and TNF-α mRNA were also examined after ABK5-2 treatment and (E) 3 h and (F) 24 h of stimulation, and protein levels of (G) IL-2 and (H) TNF-α were measured after 24 h stimulation. […]"}, "[4]": {"tested_on": "TNF-α production in Jurkat cells", "assay": "PHA/PMA-induced TNF-α production in Jurkat cells (ELISA of culture medium)", "conditions": "10 μM, 24 h", "experimental": "as §3, §4"}, "[5]": {"conditions": "0.1 μM, 3 h PHA/PMA stimulation"}},
  "data": [
    {"smiles": "CCOC(=O)c1ccccc1NC(=O)CN(c1ccc(C)cc1C)S(=O)(=O)c1ccccc1", "note": "[ABK5-1]", "values": [
      {"measurement": "decrease of IL-2 mRNA", "setting": "[1]; [5]", "value": "did not show a significant decrease"},
      {"measurement": "decrease of IL-2 mRNA", "setting": "[1]; 1 μM, 3 h PHA/PMA stimulation", "value": "about 17%"},
      {"measurement": "decrease of IL-2 mRNA", "setting": "[1]; 1 μM, 24 h", "value": "about 14%"},
      {"measurement": "decrease of IL-2 mRNA", "setting": "[1]; 10 μM, 3 h PHA/PMA stimulation", "value": "~46", "unit": "%"},
      {"measurement": "decrease of IL-2 mRNA", "setting": "[1]; 10 μM, 24 h", "value": "~67", "unit": "%"},
      {"measurement": "decrease of TNF-α mRNA", "setting": "[2]; 3 h PHA/PMA stimulation", "value": 35, "unit": "%"},
      {"measurement": "decrease of TNF-α mRNA", "setting": "[2]; 24 h", "value": 50, "unit": "%"},
      {"measurement": "decrease of IL-2 production (protein, ELISA)", "setting": "[3]", "value": "about 42%"},
      {"measurement": "decrease of TNF-α production (protein, ELISA)", "setting": "[4]", "value": "~37", "unit": "%"}
    ]},
    {"smiles": "CCOC(=O)c1ccccc1NC(=O)CN(c1c(C)cccc1C)S(=O)(=O)c1ccccc1", "note": "[ABK5-2]", "values": [
      {"measurement": "decrease of IL-2 mRNA", "setting": "[1]; [5]", "value": "about 20%"},
      {"measurement": "decrease of IL-2 mRNA", "setting": "[1]; 1 μM, 3 h PHA/PMA stimulation", "value": "~15", "unit": "%"},
      {"measurement": "decrease of IL-2 mRNA", "setting": "[1]; 10 μM, 3 h PHA/PMA stimulation", "value": "~46", "unit": "%"},
      {"measurement": "decrease of IL-2 mRNA", "setting": "[1]; 10 μM, 24 h", "value": "about 65%"},
      {"measurement": "decrease of TNF-α mRNA", "setting": "[2]; 3 h PHA/PMA stimulation", "value": 45, "unit": "%"},
      {"measurement": "decrease of TNF-α mRNA", "setting": "[2]; 24 h", "value": "about 60%"},
      {"measurement": "decrease of IL-2 production (protein, ELISA)", "setting": "[3]", "value": "about 42%"},
      {"measurement": "decrease of TNF-α production (protein, ELISA)", "setting": "[4]", "value": "~43", "unit": "%"}
    ]}
  ]
}
